Results as given in DBAASP.
Converted amounts (≈) assume the structure as drawn. “And” between values parts separate entries of the source, which are not always exact repeats. Identical values can stand only once.

Assays:
Experiment in all cases: ≥ marks a high value that may be exact or a test limit, other limits are often not marked, values filed in µg/mL are converted to µM
[1] = system: Escherichia coli MG1655
[2] = system: Bacillus subtilis 168 HT
[3] = system: Candida albicans NCPF 1467
[4] = system: Escherichia coli NCTC 10418
[5] = system: Staphylococcus aureus NCTC 10788
[6] = system: Pseudomonas aeruginosa ATCC 27853
[7] = system: Staphylococcus aureus ATCC 25923
[8] = system: Escherichia coli ATCC 35218
[9] = system: Klebsiella pneumoniae ATCC 13866
[10] = system: Escherichia coli ATCC 11229
[11] = system: Staphylococcus aureus ATCC 29213
[12] = system: Staphylococcus aureus ATCC 33591
[13] = system: Staphylococcus epidermidis ATCC 12228
[14] = system: Staphylococcus aureus
[15] = system: Batrachochytrium dendrobatidis
[16] = system: Escherichia coli
[17] = system: Bacillus cereus
[18] = system: Candida krusei ATCC 6258
[19] = system: Listeria innocua
[20] = system: Candida albicans SC5314
[21] = system: Micrococcus luteus
[22] = system: Streptococcus uberis
[23] = system: Candida parapsilosis ATCC 22019
[24] = system: Pasteurella multocida
[25] = system: Staphylococcus epidermidis
[26] = system: Candida albicans ATCC 90028
[27] = system: Leuconostoc lactis
[28] = system: Bacillus subtilis KCTC 2217
[29] = system: Acinetobacter baumannii KCTC 2508
[30] = system: Cutibacterium acnes JCM 6473
[31] = system: Porphyromonas gingivalis ATCC 33277
[32] = system: Streptococcus mutans JCM 5705
[33] = system: Candida albicans NBRC 1385
[34] = system: Staphylococcus aureus ATCC 2592
[35] = system: Bacillus subtilis
[36] = system: Escherichia coli ATCC 25922

In the case of `CC[C@H](C)[C@H](NC(=O)[C@H](CC(C)C)NC(=O)[C@@H](N)CS)C(=O)N[C@@H](CCSC)C(=O)N[C@@H](CCCCN)C(=O)N[C@H](C(=O)N[C@@H](CCCN=C(N)N)C(=O)N[C@@H](CCCN=C(N)N)C(=O)N[C@@H](CCCCN)C(=O)N[C@@H](CCCCN)C(=O)O)C(C)C` [CLIMKVRRKK], the MIC [1] is reported as no less than 100 µM and the MIC [2] is reported as 12.6 µM (≈ 16.1 µg/mL).
`CC[C@H](C)[C@H](NC(=O)[C@H](C)NC(=O)[C@H](CC(N)=O)NC(=O)[C@@H]1CCCN1C(=O)[C@@H](NC(=O)[C@H](CC(C)C)NC(=O)[C@H](CO)NC(=O)[C@H](Cc1ccccc1)NC(=O)[C@H](CC(C)C)NC(=O)[C@@H](N)Cc1ccccc1)[C@@H](C)CC)C(=O)N[C@@H](CO)C(=O)NCC(=O)N[C@@H](CC(C)C)C(=O)N[C@@H](CC(C)C)C(=O)N[C@@H](CO)C(=O)N[C@@H](C)C(=O)N[C@@H](Cc1ccccc1)C(=O)N[C@H](C=O)CCCCN` [FLFSLIPNAISGLLSAFK] was tested, and the MIC [3] was 16 µM (≈ 30.8 µg/mL), the MIC [4] was no less than 250 µM and the MIC [5] was 8 µM (≈ 15.4 µg/mL).
Work on `CC[C@H](C)[C@H](NC(=O)[C@@H](NC(=O)[C@H](CO)NC(=O)CN)C(C)C)C(=O)N[C@@H](CCCN=C(N)N)C(=O)N[C@@H](C)C(=O)N[C@@H](CC(C)C)C(=O)N[C@@H](CCSC)C(=O)N[C@@H](CCCN=C(N)N)C(=O)N[C@@H](CCSC)C(=O)N[C@@H](Cc1ccccc1)C(=O)N[C@@H](C)C(=O)N[C@@H](CCCN=C(N)N)C(=O)N[C@@H](CC(C)C)C(=O)N[C@H](C(=O)NCC(=O)O)C(C)C` [GSVIRALMRMFARLVG] yielded an MIC [6] of 4.5 µM (≈ 8 µg/mL), an MIC [7] of 36 µM (≈ 64 µg/mL) and an MIC [8] of no less than 36 µM. The MIC [9] was no less than 36 µM, the MIC [10] was no less than 36 µM and the MIC [11] was 36 µM (≈ 64 µg/mL). The MIC [12] was 4.5 µM (≈ 8 µg/mL) and the MIC [13] was 4.5 µM (≈ 8 µg/mL).
Work on `CC[C@H](C)[C@H](NC(=O)[C@@H](NC(=O)CN)C(C)C)C(=O)N[C@@H](CC(=O)O)C(=O)N[C@@H](C)C(=O)N[C@@H](C)C(=O)N[C@@H](CCCCN)C(=O)N[C@@H](CCCCN)C(=O)N[C@@H](Cc1c[nH]c2ccccc12)C(=O)N[C@@H](CC(N)=O)C(=O)N[C@H](C(=O)N[C@@H](CC(C)C)C(=O)N[C@@H](CCCCN)C(=O)N[C@@H](CC(N)=O)C(=O)N[C@@H](CC(C)C)C(=O)N[C@@H](Cc1ccccc1)C(N)=O)C(C)C` [GVIDAAKKVVNVLKNLF] yielded an MIC [14] of 13.7 µM (≈ 24.8 µg/mL), an MIC [15] of no less than 100 µM and an MIC [16] of 54.7 µM (≈ 99.3 µg/mL). For the same compound, the MIC [17] was 13.7 µM (≈ 24.8 µg/mL), the MIC [18] was no less than 35 µM and the MIC [19] was 27.3 µM (≈ 49.6 µg/mL). For the same compound, the MIC [20] was no less than 35 µM, the MIC [21] was 27.3 µM (≈ 49.6 µg/mL) and the MIC [22] was 6.56 µM (≈ 11.9 µg/mL). For the same compound, the MIC [23] was no less than 70 µM, the MIC [24] was 27.3 µM (≈ 49.6 µg/mL) and the MIC [25] was 6.56 µM (≈ 11.9 µg/mL). For the same compound, the MIC [26] was no less than 70 µM and the MIC [27] was 1.64 µM (≈ 2.98 µg/mL).
`CC(C)C[C@H](NC(=O)[C@H](CCCCN)NC(=O)[C@H](CCCCN)NC(=O)[C@H](CC(C)C)NC(=O)[C@H](CC(C)C)NC(=O)[C@H](CCCCN)NC(=O)[C@H](CCCCN)NC(=O)[C@H](CC(C)C)NC(=O)[C@H](CC(C)C)NC(=O)[C@@H]1CCCN1C(=O)[C@H](CCCCN)NC(=O)[C@H](CCCCN)NC(=O)[C@H](CC(C)C)NC(=O)[C@H](CC(C)C)NC(=O)[C@H](CCCCN)NC(=O)[C@@H](N)CCCCN)C(N)=O` [KKLLKKPLLKKLLKKL] was tested, and the MIC [7] was 1.56 µM and > 0.78 µM, the MIC [28] was 1.56 µM (≈ 3.01 µg/mL) and the MIC [29] was 3.13 µM (≈ 6.05 µg/mL).
With `CC(C)C[C@H](NC(=O)[C@H](CCCCN)NC(=O)[C@H](CCCCN)NC(=O)[C@H](CC(C)C)NC(=O)[C@H](CC(C)C)NC(=O)[C@H](CCCCN)NC(=O)[C@H](CCCCN)NC(=O)[C@H](CC(C)C)NC(=O)[C@H](CC(C)C)NC(=O)[C@@H]1CCCN1C(=O)[C@H](CCCCN)NC(=O)[C@H](CCCCN)NC(=O)[C@H](CC(C)C)NC(=O)[C@@H](N)CC(C)C)C(N)=O` [LLKKPLLKKLLKKL] the MIC [7] was 1.56 µM and > 0.78 µM, the MIC [28] was 1.56 µM (≈ 2.61 µg/mL) and the MIC [29] was 12.5 µM (≈ 20.9 µg/mL).
Compound `CSCC[C@H](NC(=O)[C@H](CC(C)C)NC(=O)[C@H](CC(C)C)NC(=O)[C@H](CCCCN)NC(=O)[C@H](CCCN=C(N)N)NC(=O)[C@H](CCC(=O)O)NC(=O)[C@H](CC(C)C)NC(=O)[C@H](CC(C)C)NC(=O)[C@H](CO)NC(=O)[C@@H](N)CCSC)C(=O)N[C@@H](Cc1cnc[nH]1)C(=O)N[C@@H](Cc1ccccc1)C(=O)N[C@@H](CC(C)C)C(=O)N[C@@H](CCCN=C(N)N)C(=O)N[C@H](C(=O)O)C(C)C` [MSLLERKLLMHFLRV] has an MIC [6] of 4.24 µM (≈ 8 µg/mL), an MIC [7] of 8.48 µM (≈ 16 µg/mL) and an MIC [8] of no less than 67.9 µM. It also gave an MIC [9] of no less than 33.9 µM, an MIC [10] of no less than 33.9 µM and an MIC [12] of 8.48 µM (≈ 16 µg/mL). It also gave an MIC [13] of 8.48 µM (≈ 16 µg/mL).
With `CC[C@H](C)[C@H](NC(=O)[C@@H](N)CCCN=C(N)N)C(=O)N[C@@H](CCCN=C(N)N)C(=O)N[C@@H](CC(C)C)C(=O)N[C@@H](CC(C)C)C(=O)N[C@@H](CCC(N)=O)C(=O)N[C@@H](CCCN=C(N)N)C(=O)N[C@@H](Cc1ccccc1)C(=O)N[C@@H](CC(N)=O)C(=O)N[C@@H](CCCCN)C(=O)N[C@@H](CCCN=C(N)N)C(=O)O` [RIRLLQRFNKR] the MIC [30] was no less than 1020 µM, the MIC [31] was no less than 256 µM and the MIC [32] was no less than 1020 µM. It also gave an MIC [33] of no less than 512 µM.
`C[C@@H](O)[C@H](NC(=O)[C@H](CCCCN)NC(=O)[C@H](CCCCN)NC(=O)[C@H](CO)NC(=O)[C@H](CCCN=C(N)N)NC(=O)[C@H](Cc1c[nH]c2ccccc12)NC(=O)[C@H](CCC(=O)O)NC(=O)[C@H](CCCN=C(N)N)NC(=O)[C@H](CO)NC(=O)[C@H](CCCCN)NC(=O)[C@@H](N)CCCN=C(N)N)C(=O)N[C@@H](CCC(N)=O)C(=O)N1CCC[C@H]1C(=O)N[C@@H](CCCN=C(N)N)C(=O)N[C@@H](CCCN=C(N)N)C(=O)N1CCC[C@H]1C(=O)N[C@@H](CCCN=C(N)N)C(=O)O` [RKSREWRSKKTQPRRPR] gave an MIC [30] of no less than 1020 µM, an MIC [31] of no less than 1020 µM and an MIC [32] of no less than 1020 µM. It also gave an MIC [33] of no less than 1020 µM.
`CC(C)[C@H](N)C(=O)N[C@@H](CCCCN)C(=O)N[C@@H](CCCN=C(N)N)C(=O)N[C@@H](Cc1c[nH]c2ccccc12)C(=O)N[C@@H](CCCCN)C(=O)N[C@@H](CCCCN)C(=O)N[C@@H](Cc1c[nH]c2ccccc12)C(=O)N[C@@H](CCCCN)C(=O)N[C@@H](CCCN=C(N)N)C(=O)N[C@@H](CCCCN)C(=O)N[C@@H](Cc1c[nH]c2ccccc12)C(=O)N[C@@H](CCCCN)C(=O)N[C@@H](CCCCN)C(=O)N[C@@H](Cc1c[nH]c2ccccc12)C(=O)N[C@H](C(N)=O)C(C)C` [VKRWKKWKRKWKKWV] showed an MIC [34] of 2.8 µM (≈ 6.08 µg/mL), an MIC [35] of 2.8 µM (≈ 6.08 µg/mL) and an MIC [20] of 2.8 µM (≈ 6.08 µg/mL). The MIC [36] was 1.6 µM (≈ 3.47 µg/mL).
